Data set [1] is described as follows: Intrinsic dissolution rate from miniaturized discs (DIDR), μDiss Profiler. As to conditions: disc (D), 100 rpm, mean ± SD; for IDRFaSSIF-V1: FaSSIF-V1 pH 6.5, 37 °C; for IDRFaSSIF-V2: FaSSIF-V2 pH 6.5, 37 °C. It counts as physicochemical. The procedure:
Dissolution experiments were carried out in a small-scale dissolution apparatus using in situ fiber optic probes to measure the amount of drug dissolved over time by UV absorbance (μDiss Profiler, Pion Inc., Billerica, MA, USA). Drug dissolution was carried out from suspensions (S) or discs (D) depending on the solubility of the compound in the biorelevant media studied (Table 3). […] Standard curves were established by adding aliquots of DMSO stock solutions of the compounds to 3 mL of biorelevant medium, respectively. Dissolution media were prepared following the protocol provided by Biorelevant.com Ltd. and used within 48 h after their preparation. The media were incubated at 37 °C for at least one hour prior to use in the dissolution experiments. The hydrodynamic diameter of the micelles/vesicles formed in the biorelevant media were measured by DLS (Table 2). […] Stirring was turned off while measuring the UV absorbance for each aliquot and the standard curve was established based on six aliquots. […] Intrinsic dissolution rates will henceforth be denoted 'IDR' for both SIDR and DIDR values determined in this study (see Table 3 for details).

Data set [2] in a line: physchem. As to conditions: 37 °C, pH 6.5, fassif, thermodynamic from solid.
Description: In these experiments, an excess amount of drug was added to triplicate Eppendorf tubes containing 1 mL of the respective dissolution medium. The tubes were vortexed and placed in a 37 °C incubator. Samples for HPLC analysis were taken 24, 48, and 72 h (triplicates at each time point) after initiation of the experiment to ensure that equilibrium had been reached. The samples were centrifuged at 37 °C, 23,000 g for 10 min (Heraeus Megafuge 8R, Thermo Scientific, Waltham, MA, USA). The supernatant was sampled, diluted 1:1 with acetonitrile, and kept refrigerated until HPLC analysis. […] The injection volumes were 20 μL.
The nature of data set [3]: Apparent solubility estimated from dissolution experiments in the μDiss Profiler. Conditions: for solubility thermodynamic: thermodynamic from solid. It counts as physicochemical. How it is done:
If literature values were not available, Sapp values were estimated from the dissolution experiments either from the steady state concentration reached during dissolution making use of an excess amount material, or by nonlinear regression analysis of the dissolution data in GraphPad Prism 7.04 (GraphPad Software Inc., San Diego, CA, USA). […] In these experiments, an excess amount of drug was added to triplicate Eppendorf tubes containing 1 mL of the respective dissolution medium. The tubes were vortexed and placed in a 37 °C incubator. Samples for HPLC analysis were taken 24, 48, and 72 h (triplicates at each time point) after initiation of the experiment to ensure that equilibrium had been reached. The samples were centrifuged at 37 °C, 23,000 g for 10 min (Heraeus Megafuge 8R, Thermo Scientific, Waltham, MA, USA). The supernatant was sampled, diluted 1:1 with acetonitrile, and kept refrigerated until HPLC analysis. The concentrations of the dissolved drugs were determined using a HPLC (Agilent Technologies 1290 Infinity, Santa Clara, CA, USA) with a Zorbax Eclipse XDB-C18 column (4.6 × 100 mm; Agilent Technologies, Santa Clara, CA, USA) kept at 40 °C. The injection volumes were 20 μL. A mobile phase 0.1% formic acid in acetonitrile: 0.1% formic acid in water 60:40 (v/v) and an isocratic flow rate at 1 mL/min were used for both naproxen and ethinylestradiol. UV absorbances were monitored at a wavelength of 232 nm for naproxen and 315 nm for ethinylestradiol. The retention time was 1.76 min for naproxen and 1.85 min for ethinylestradiol. Dissolution experiments were carried out in a small-scale dissolution apparatus using in situ fiber optic probes to measure the amount of drug dissolved over time by UV absorbance (μDiss Profiler, Pion Inc., Billerica, MA, USA). Drug dissolution was carried out from suspensions (S) or discs (D) depending on the solubility of the compound in the biorelevant media studied (Table 3). […] Glass vials (six in parallel), each containing 15 mL of biorelevant dissolution medium and a crossbar stirrer, were used for the dissolution experiments. The stirring rate was set to 100 rpm. Freshly prepared API suspensions were briefly vortexed to re-disperse any sediments and 500 μL of suspension was added to each vial to initiate the experiment. […] Experiments were run for at least 20 min with data collected every 1 s for the first 8 min and then once per minute for the remaining time. All dissolution experiments from suspensions were carried out in triplicate.

For data set [4] the following is noted: apparent solubility, cited from earlier work.

Molecules are shown by their SMILES. ≈ marks a conversion by molar mass, not a printed value. Read-outs that look alike come from different tables or passages of the source.

In data set [1], `C#C[C@]1(O)CC[C@H]2[C@@H]3CCc4cc(O)ccc4[C@H]3CC[C@@]21C` [Ethinylestradiol] registered an IDRFaSSIF-V1 of 3.2 ±0.1 μg/min/cm^2 and an IDRFaSSIF-V2 of 6.6 ± 0.8 μg/min/cm^2. This compound also registered a solubility thermodynamic in data set [2] of 18.7 ± 1.3 µg/mL (≈ 63.1 µM).
For `CC(C)(Oc1ccc(C(=O)c2ccc(Cl)cc2)cc1)C(=O)O` [Fenofibric acid], the IDRFaSSIF-V1 in data set [1] is recorded as 227 ± 33 μg/min/cm^2. Also, the solubility thermodynamic in data set [3] (FaSSIF-V1, 37 °C, pH 6.5, fassif, FaSSIF-V1 pH 6.5, determined from dissolution experiments in the μDiss Profiler, read-out: SFaSSIF-V1) was around 100 µg/mL (≈ 314 µM); in data set [3] (FeSSIF-V1, 37 °C, pH 5, fessif, FeSSIF-V1 pH 5, determined from dissolution experiments in the μDiss Profiler, read-out: SFeSSIF-V1), 101 ± 3.8 µg/mL (≈ 318 µM). For the same compound, in data set [3] (FaSSIF-V1 pH 6.5, determined from dissolution experiments in the μDiss Profiler), the SFaSSIF-V1 was 104.8 ± 1.0 µg/mL.
Compound `COc1ccc2c(c1)c(CC(=O)O)c(C)n2C(=O)c1ccc(Cl)cc1` [Indomethacin] came in with an IDRFaSSIF-V1 in data set [1] of 31 ± 1.3 μg/min/cm^2. Further, the SFaSSIF-V1 in data set [4] (FaSSIF-V1 pH 6.5) is 421.7 ± 17.6 [7] μg/mL. For the same compound, the SFeSSIF-V1 in data set [4] (FeSSIF-V1 pH 5) was 109.0 ± 7.0 [15] μg/mL.
In data set [1], `COc1ccc2cc([C@H](C)C(=O)O)ccc2c1` [Naproxen] came in with an IDRFaSSIF-V1 of 144 ± 12 μg/min/cm^2 and an IDRFaSSIF-V2 of 179 ± 11 μg/min/cm^2.

Source of the values: article PMC7356998, “Intrinsic Dissolution Rate Profiling of Poorly Water-Soluble Compounds in Biorelevant Dissolution Media” (Pharmaceutics, 2020).
